Results taken from patent EP4260858A1, “COMPOSITION COMPRISING PRIMIDONE AND PEG” (Christian-Albrechts-Universität zu Kiel, priority 2022, dated 2023).

Columns and labels:
[1] = test system: L929 fibroblasts; assay: TNFα + zVAD induced RIPK1-dependent necroptosis, FACS (7-AAD / Annexin V); format: cell-based
Method: (§1) The commercially available drug Necrostatin-1 (Nec-1s, 20 µM) acted as an internal control (inhibitor) of RIPK1-mediated cell death. All drugs were added 30 min before TNFα stimulation. RIPK1-mediated cell death was quantified by FACS analysis using 7-amino-actinomycin D and phosphatidylserine accessibility (Annexin V staining) as markers. […] The commercially available drug Necrostatin-1 (Nec-1s, 20 µM) acted as an internal control (inhibitor) of RIPK1-mediated cell death. All drugs were added 30 min before TNFα stimulation. RIPK1-mediated cell death was quantified by FACS analysis using 7-amino-actinomycin D and phosphatidylserine accessibility (Annexin V staining) as markers. […] All drugs were added 30 min before TNFα stimulation. […] All drugs were added 30 min before TNFα stimulation. Necroptotic cell death was quantified by FACS analysis using 7-amino-actinomycin D and phosphatidylserine accessibility (Annexin V staining) as markers.
(§2) The known RIPK1 kinase inhibitor Nec-1s was used as a control.
(§3) RIPK3-expressing NIH3T3 cells and L929 fibroblasts were obtained from the American Type Culture Collection (Manassas, VA, USA). Both cell lines were cultured in DMEM (Gibco, Thermo Fisher Scientific, Schwerte, Germany) supplemented with 10% (v/v) FCS (PAN-Biotech GmbH, Aidenbach, Germany), 100 U/ml penicillin, and 100 µg/ml streptomycin (both from Merck Millipore GmbH, Darmstadt, Germany). The cell lines were cultured in a humidified 5% CO2 atmosphere at 37°C. Negativity for mycoplasma was routinely checked using a MycoAlert Mycoplasma Detection Kit (Lonza, Cologne, Germany). Unless stated otherwise, assays were conducted using 1x 10^5 cells in 1 ml of medium.
(§4) Recombinant purified TNFα (# 570104) was purchased from BioLegend (Amsterdam, the Netherlands). The pan-caspase inhibitor zVAD-fmk (# 4026865) was purchased from Bachem (Weil am Rhein, Germany), Nec-1s (2263-1-BV) was obtained from BioCat (Heidelberg, Germany); primidone (# P7295) was purchased from Sigma-Aldrich Chemie GmbH (Taufkirchen, Germany). Polyethylenglycol (PEG300, # 202371) was purchased from Merck Millipore, Dimethyl sulfoxide (DMSO, A3672) was obtained from AppliChem (via Thermo Fisher Scientific).
(§5) For testing the ability of primidone to protect against RIPK1-driven cell death, cells were kept in 1 ml medium. To test 1 mM, 0.75 mM and 0.5 mM primidone in PEG300, we pipetted 15.6 µl, 11.7 µl and 7.8 µl, respectively, of the 64.144 mM stock solution to the 1 ml of the medium that contains the cells. […]
(§6) Phosphatidylserine exposure to the outer cell membrane of apoptotic cells or inner plasma membrane of necrotic cells and incorporation of 7-amino-actinomycin D (7-AAD) into necrotic cells was quantified by flow cytometry analysis. […]

[2] = test system: NIH3T3 cells; assay: as above; format: cell-based
Method: as §1, §2, §3, §4, §5, §6

[3] = target: T1, RIPK1 (Homo sapiens, UniProt Q13546); conditions: background statement, WO 2021/048162 A1; cited from earlier work
T1 sequence (Q13546 1-671): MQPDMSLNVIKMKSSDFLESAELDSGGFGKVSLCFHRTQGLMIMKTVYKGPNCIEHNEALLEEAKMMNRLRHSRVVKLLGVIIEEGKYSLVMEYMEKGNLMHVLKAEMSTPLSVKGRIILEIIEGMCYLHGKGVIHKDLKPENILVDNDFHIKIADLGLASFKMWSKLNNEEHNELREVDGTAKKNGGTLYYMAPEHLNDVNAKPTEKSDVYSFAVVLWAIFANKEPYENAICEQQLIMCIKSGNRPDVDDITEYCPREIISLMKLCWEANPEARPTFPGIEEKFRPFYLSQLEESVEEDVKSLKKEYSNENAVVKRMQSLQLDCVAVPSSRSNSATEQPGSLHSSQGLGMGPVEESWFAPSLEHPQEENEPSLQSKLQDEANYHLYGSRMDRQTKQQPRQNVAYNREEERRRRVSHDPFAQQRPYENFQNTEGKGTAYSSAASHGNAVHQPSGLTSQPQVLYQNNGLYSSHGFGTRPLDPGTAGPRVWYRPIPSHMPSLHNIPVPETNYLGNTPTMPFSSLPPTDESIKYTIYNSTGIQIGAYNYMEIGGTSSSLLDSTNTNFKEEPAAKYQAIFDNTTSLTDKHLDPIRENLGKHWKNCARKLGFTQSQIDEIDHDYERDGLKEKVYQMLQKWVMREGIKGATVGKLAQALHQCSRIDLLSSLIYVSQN

[4] = cited from earlier work
[5] = primidone solubilized in PEG300, control Nec-1s 20 µM

CCC1(c2ccccc2)C(=O)NCNC1=O [primidone, 5-Ethyl-5-phenyl-1,3-diazinane-4,6-dione]
protection from RIPK1-mediated necroptosis ([1]; 10 ng/ml TNFα + 25 µM zVAD, 24 h, 37°C, equimolar primidone (0.5-1 mM) dissolved in DMSO or PEG300, added 30 min before TNFα): able to protect | protective effects compared with Nec-1s [1, 5]: as strong as those observed for Nec-1s | protection from RIPK1-mediated necroptosis ([2]; 100 ng/ml TNFα + 25 µM zVAD, 24 h, 37°C, equimolar primidone (0.5-1 mM) dissolved in DMSO or PEG300, added 30 min before TNFα): able to protect | protective effects compared with Nec-1s [2, 5]: as strong as those observed for Nec-1s | activation of RIPK1 by phosphorylation or autophosphorylation [3]: prevents the activation of RIPK1 | soluble in dimethyl sulfoxide (DMSO) in amounts of up to ([4]; DMSO): up to 44 mg/ml | soluble in ethanol up to a concentration ([4]; ethanol): about 3 mg/ml | soluble in water up to a concentration ([4]; water): about 0.5 mg/ml
